Laboratory results taken from ChEMBL document CHEMBL2157905, “Inhibition of therapeutically important polymerases with high affinity bis-intercalators” (Bioorg Med Chem Lett, 2012).
Starred links: 1 amine or outer side, 2 acyl side, 3 side chain; linkers in the order of their positions; H or OH if unused. Positions of bridges follow the written chain, without caps; N, C: chain ends. Non-standard residues stand in square brackets, D forms with d. Residues, ends and D or L forms follow the SMILES beside them. Chains are numbered I, II in the order given. Actinocin(9to1) = Cc1c2oc3c(C)ccc(C(=O)[*:1])c3nc-2c(C(=O)[*:2])c(N)c1=O; NMeV = CN[C@H](C(=O)O)C(C)C; Sar = CNCC(=O)O

Key:
[1] = target: T1, Human immunodeficiency virus type 1 reverse transcriptase (Human immunodeficiency virus 1, UniProt Q72547); experiment: Inhibition of HIV-1 reverse transcriptase using 25 ug/mL of Poly(rA).p(dT) (12 to 18) as substrate after 30 mins by single point PCR assay
[2] = target: T1, Human immunodeficiency virus type 1 reverse transcriptase; experiment: Inhibition of HIV-1 reverse transcriptase using 0.05 ug/mL of Poly(rA).p(dT) (12 to 18) as substrate after 30 mins by single point PCR assay
[3] = target: T1, Human immunodeficiency virus type 1 reverse transcriptase; experiment: Inhibition of HIV-1 reverse transcriptase using 0.5 ug/mL of Poly(rA).p(dT) (12 to 18) as substrate after 30 mins by single point PCR assay
[4] = target: T1, Human immunodeficiency virus type 1 reverse transcriptase; experiment: Inhibition of HIV-1 reverse transcriptase using Poly(rA).p(dT) (12 to 18) as substrate after 30 mins by single point PCR assay
[5] = Inhibition of telomerase in human HeLa cell extract by fluorescence-based assay; type: cell-free
[6] = Inhibition of partially purified telomerase by fluorescence-based assay
[7] = target: T1, Human immunodeficiency virus type 1 reverse transcriptase; experiment: Inhibition of HIV-1 reverse transcriptase using 25 ug/mL of Poly(rA).p(dT) (12 to 18) as substrate after 30 mins by single point PCR assay in presence of 340 uM base pair of calf thymus DNA
[8] = Inhibition of telomerase

| SMILES | IC50 [2] [nM] | IC50 ([4]; read-out: IC50) [µM] | also measured |
| --- | --- | --- | --- |
| COc1ccc2nc3cc(Cl)ccc3c(NCCCNCCCCNCCCNc3c4ccc(Cl)cc4nc4ccc(OC)cc34)c2c1 [ACRIDINE DIMER] | 220 | – | IC50 [1]: 12900 nM; IC50 [3]: 400 nM |
| CN(C)c1ccc2cc3ccc(N(C)C)cc3nc2c1 [ACRIDINE ORANGE] | – | 200 | – |
| COc1ccc2nc3cc(Cl)ccc3c(N)c2c1 | – | – | IC50 [4]: Not Active |
| NC(=O)C(CNC(=O)c1ccc(C[n+]2c(-c3ccccc3)c3cc(N)ccc3c3ccc(N)cc32)cc1)NC(=O)[C@@H](N)CCCNC(=O)c1ccc(C[n+]2c(-c3ccccc3)c3cc(N)ccc3c3ccc(N)cc32)cc1 (stereo not given in full) | 22.3 | – | – |
| NCCCC[C@H](NC(=O)CCNC(=O)C(N)CN)C(N)=O (stereo not given in full) | – | – | IC50 [5]: 600 nM; IC50 [6]: 100 nM |
| Nc1ccc2c(c1)c(-c1ccccc1)[n+](CCCNCCNCCC[n+]1c(-c3ccccc3)c3cc(N)ccc3c3ccc(N)cc31)c1cc(N)ccc21 | 10.8 | – | IC50 [7]: 8.5 µM; IC50 [1]: 2300 nM |
| Cc1c2oc3c(C)c(N)cc(C(=O)N[C@@H]4C(=O)N[C@H](C(C)C)C(=O)N5CCC[C@H]5C(=O)N(C)CC(=O)N(C)[C@@H](C(C)C)C(=O)O[C@@H]4C)c3nc-2c(C(=O)N[C@@H]2C(=O)N[C@H](C(C)C)C(=O)N3CCC[C@H]3C(=O)N(C)CC(=O)N(C)[C@@H](C(C)C)C(=O)O[C@@H]2C)c(N)c1=O | – | 93 | – |
| CC[N+](C)(CC)CCC[n+]1c(-c2ccccc2)c2cc(N)ccc2c2ccc(N)cc21 [PROPIDIUM] | – | 3 | – |
| NC(=O)C(CNC(=O)c1ccc(C[n+]2c(-c3ccccc3)c3cc(N)ccc3c3ccc(N)cc32)cc1)NC(=O)CCCCCNC(=O)[C@@H](N)CCCCNC(=O)c1ccc(C[n+]2c(-c3ccccc3)c3cc(N)ccc3c3ccc(N)cc32)cc1 (stereo not given in full) | 30.7 | – | – |
| O=C(O)c1c2ccccc2nc2ccccc12 | – | – | IC50 [4]: Not Active |
| Cc1cc2cc3cc(C)c(N)cc3nc2cc1N [ACRIDINE YELLOW] | – | 32 | – |
| NC(=O)[C@H](CCCNC(=O)c1ccc(C[n+]2c(-c3ccccc3)c3cc(N)ccc3c3ccc(N)cc32)cc1)NC(=O)CCCCCNC(=O)[C@@H](N)CCCNC(=O)c1ccc(C[n+]2c(-c3ccccc3)c3cc(N)ccc3c3ccc(N)cc32)cc1 | 4.9 | – | – |
| NC(=O)[C@H](CCCCNC(=O)c1ccc(C[n+]2c(-c3ccccc3)c3cc(N)ccc3c3ccc(N)cc32)cc1)NC(=O)CCCNC(=O)[C@@H](N)CCCCNC(=O)c1ccc(C[n+]2c(-c3ccccc3)c3cc(N)ccc3c3ccc(N)cc32)cc1 | 10.5 | – | – |
| Cc1c2ccncc2c(C)c2c1[nH]c1ccccc12 [ELLIPTECINE] | – | 182 | – |
| O=C(O)c1cccc2cc3ccccc3cc12 | – | – | IC50 [4]: Not Active |
| CC[n+]1c(-c2ccccc2)c2cc(N)ccc2c2ccc(N)cc21 [HOMIDIUM BROMIDE] | – | 2 | – |
| CC[n+]1c(-c2ccccc2)c2cc(N)ccc2c2ccc(N)cc21 [HOMIDIUM] | 2100 | – | IC50 [1]: 2200 nM; IC50 [8]: 3.3 µM; IC50 [3]: 1800 nM |
| NC(=O)[C@H](CCCNC(=O)c1ccc(C[n+]2c(-c3ccccc3)c3cc(N)ccc3c3ccc(N)cc32)cc1)NC(=O)CCNC(=O)C(N)CNC(=O)c1ccc(C[n+]2c(-c3ccccc3)c3cc(N)ccc3c3ccc(N)cc32)cc1 (stereo not given in full) | 9.2 | – | – |
| Cc1c2oc3c(C)ccc(C(=O)N[C@@H]4C(=O)N[C@H](C(C)C)C(=O)N5CCC[C@H]5C(=O)N(C)CC(=O)N(C)[C@@H](C(C)C)C(=O)O[C@@H]4C)c3nc-2c(C(=O)N[C@@H]2C(=O)N[C@H](C(C)C)C(=O)N3CCC[C@H]3C(=O)N(C)CC(=O)N(C)[C@@H](C(C)C)C(=O)O[C@@H]2C)c(N)c1=O [DACTINOMYCIN] (I: T[dV]P[Sar][NMeV] / II: T[dV]P[Sar][NMeV]; ester I:1-I:C, II:1-II:C; linker I:N-II:N via Actinocin(9to1)) | – | 270 | – |
| CCOc1ccc2nc3cc(N)ccc3c(N)c2c1 | – | 20 | – |
| COc1cccc2c1C(=O)c1c(O)c3c(c(O)c1C2=O)C[C@@](O)(C(C)=O)C[C@@H]3O[C@H]1C[C@H](N)[C@H](O)[C@H](C)O1 [DAUNORUBICIN] | – | 139 | – |
| O=C(O)c1ccc2cc3ccccc3cc2c1 | – | – | IC50 [4]: Not Active |
